For this data set, the system named is CCRIS mutagenicity, Ames/micronucleus/aberration tests. The experiment in a line: CCRIS mutagenicity studies.
Where [1] appears, read: Test System: AMES SALMONELLA TYPHIMURIUM, Strain/Indicator: TA98, Metabolic Activation: NONE, Method: STANDARD PLATE.
Where [2] appears, read: Test System: AMES SALMONELLA TYPHIMURIUM, Strain/Indicator: TA100, Metabolic Activation: NONE, Method: STANDARD PLATE.
[3] abbreviates: Test System: AMES SALMONELLA TYPHIMURIUM, Strain/Indicator: TA1535, Metabolic Activation: NONE, Method: STANDARD PLATE.
Where [4] appears, read: Test System: AMES SALMONELLA TYPHIMURIUM, Strain/Indicator: TA1537, Metabolic Activation: NONE, Method: STANDARD PLATE.
Where [5] appears, read: Test System: AMES SALMONELLA TYPHIMURIUM, Strain/Indicator: TA98, Metabolic Activation: RAT, LIVER, S-9, AROCLOR 1254, Method: STANDARD PLATE.
Where [6] appears, read: Test System: AMES SALMONELLA TYPHIMURIUM, Strain/Indicator: TA100, Metabolic Activation: RAT, LIVER, S-9, AROCLOR 1254, Method: STANDARD PLATE.

This note sets out measurements from PubChem BioAssay AID1259407 (Chemical Carcinogenesis Research Information System (CCRIS), 2018).

Structures are written as SMILES. Activity calls are given as the source filed them. How the calls were made is not given here.

Take `CCN(CC)CCCC(C)Nc1c2ccc(Cl)cc2nc2ccc(OC)cc12` (stereo not drawn): the mutagenic call (Test System: AMES SALMONELLA TYPHIMURIUM, Strain/Indicator: TA97, Metabolic Activation: HAMSTER, LIVER, S-9, AROCLOR 1254 (10%), Method: PREINCUBATION) was “active; positive”; the mutagenic call (Test System: AMES SALMONELLA TYPHIMURIUM, Strain/Indicator: TA97, Metabolic Activation: NONE, Method: PREINCUBATION) is “active; positive”; the mutagenic call (Test System: AMES SALMONELLA TYPHIMURIUM, Strain/Indicator: TA97, Metabolic Activation: RAT, LIVER, S-9, AROCLOR 1254 (10%), Method: PREINCUBATION) was “active; positive”; the mutagenic call (Test System: AMES SALMONELLA TYPHIMURIUM, Strain/Indicator: TA98, Metabolic Activation: HAMSTER, LIVER, S-9, AROCLOR 1254 (10%), Method: PREINCUBATION) is “active; positive”; the mutagenic call (Test System: AMES SALMONELLA TYPHIMURIUM, Strain/Indicator: TA98, Metabolic Activation: NONE, Method: PREINCUBATION) was “active; positive”; the mutagenic call under setting [1] is “inactive; negative”. The mutagenic call is “active; positive” (Test System: AMES SALMONELLA TYPHIMURIUM, Strain/Indicator: TA98, Metabolic Activation: RAT LIVER S-9, AROCLOR 1254 (10%), Method: STANDARD PLATE); “active; positive” (Test System: AMES SALMONELLA TYPHIMURIUM, Strain/Indicator: TA98, Metabolic Activation: RAT LIVER S-9, Method: STANDARD PLATE); “active; positive” (Test System: AMES SALMONELLA TYPHIMURIUM, Strain/Indicator: TA98, Metabolic Activation: RAT, LIVER, S-9, AROCLOR 1254 (10%), Method: PREINCUBATION); “inactive; negative” (Test System: AMES SALMONELLA TYPHIMURIUM, Strain/Indicator: TA100, Metabolic Activation: HAMSTER, LIVER, S-9, AROCLOR 1254 (10%), Method: PREINCUBATION); “inactive; negative” (Test System: AMES SALMONELLA TYPHIMURIUM, Strain/Indicator: TA100, Metabolic Activation: NONE, Method: PREINCUBATION); “inactive; negative” under setting [2]. The mutagenic call (Test System: AMES SALMONELLA TYPHIMURIUM, Strain/Indicator: TA100, Metabolic Activation: RAT LIVER S-9, AROCLOR 1254 (10%), Method: STANDARD PLATE) was “inactive; negative”; the mutagenic call (Test System: AMES SALMONELLA TYPHIMURIUM, Strain/Indicator: TA100, Metabolic Activation: RAT LIVER S-9, Method: STANDARD PLATE) was “inactive; negative”; the mutagenic call (Test System: AMES SALMONELLA TYPHIMURIUM, Strain/Indicator: TA100, Metabolic Activation: RAT, LIVER, S-9, AROCLOR 1254 (10%), Method: PREINCUBATION) is “inactive; negative”; the mutagenic call (Test System: AMES SALMONELLA TYPHIMURIUM, Strain/Indicator: TA1535, Metabolic Activation: HAMSTER, LIVER, S-9, AROCLOR 1254 (10%), Method: PREINCUBATION) was “inactive; negative”; the mutagenic call (Test System: AMES SALMONELLA TYPHIMURIUM, Strain/Indicator: TA1535, Metabolic Activation: NONE, Method: PREINCUBATION) was “inactive; negative”; the mutagenic call under setting [3] is “inactive; negative”. Also, the mutagenic call was “inactive; negative” (Test System: AMES SALMONELLA TYPHIMURIUM, Strain/Indicator: TA1535, Metabolic Activation: RAT LIVER S-9, AROCLOR 1254 (10%), Method: STANDARD PLATE); “inactive; negative” (Test System: AMES SALMONELLA TYPHIMURIUM, Strain/Indicator: TA1535, Metabolic Activation: RAT, LIVER, S-9, AROCLOR 1254 (10%), Method: PREINCUBATION); “active; positive” under setting [4]; “active; positive” (Test System: AMES SALMONELLA TYPHIMURIUM, Strain/Indicator: TA1537, Metabolic Activation: RAT LIVER S-9, AROCLOR 1254 (10%), Method: STANDARD PLATE); “active; positive” (Test System: E. COLI, Strain/Indicator: WP2 UVRA, Metabolic Activation: NONE, Method: STANDARD PLATE); “inactive; negative” (Test System: E. COLI, Strain/Indicator: WP2 UVRA, Metabolic Activation: RAT LIVER S-9, AROCLOR 1254 (10%), Method: STANDARD PLATE). In addition, the mutagenic call by setting is: (Test System: MOUSE LYMPHOMA, Strain/Indicator: L5178Y(TK+/TK-), Metabolic Activation: NONE, Method: SUSPENSION/PLATE) “active; positive”; (Test System: MOUSE LYMPHOMA, Strain/Indicator: L5178Y(TK+/TK-), Metabolic Activation: RAT LIVER S-9, AROCLOR 1254 (25%), Method: SUSPENSION/PLATE) “inactive; negative”.

As for `Fc1cc2ccccc2c2ncccc12`, under “Test System: AMES SALMONELLA TYPHIMURIUM, Strain/Indicator: TA100, Metabolic Activation: RAT, LIVER, S-9, PHENOBARBITAL AND 5,6-BENZOFLAVONE, Method: PREINCUBATION”, the mutagenic call was “active; positive”.

In the case of `O=C(N=c1sn(C(=O)c2ccccc2)c2ccc([N+](=O)[O-])cc12)c1ccccc1`, the mutagenic call (Test System: AMES SALMONELLA TYPHIMURIUM, Strain/Indicator: TA100, Metabolic Activation: S-9, Method: STANDARD PLATE) is “active; positive”.

`Cc1ccc([N+](=O)[O-])c2c(NCCCN(C)C)c3ccccc3nc12`: the mutagenic call is, setting by setting: under setting [1], “active; positive”; under setting [2], “active; positive”.

`O[C@@H]1c2ccccc2-c2ccc3ccccc3c2[C@H]1O`: the mutagenic call reads like this: under setting [1], “inactive; negative”; under setting [5], “inactive; negative”; under setting [2], “inactive; negative”; under setting [6], “inactive; negative”.

In the case of `O=[N+]([O-])O.O=[N+]([O-])O.[Cd+2]`, the mutagenic call (Test System: E. COLI, Strain/Indicator: DG1153, Metabolic Activation: NONE, Method: FLUCTUATION TEST) was “active; positive”.

Regarding `Cc1ccc(N=Cc2cccc3cccnc23)c(C(=O)O)c1`, the mutagenic call was “inactive; negative” under setting [1]; “inactive; negative” under setting [5]; “inactive; negative” under setting [2]; “inactive; negative” under setting [6]; “inactive; negative” under setting [3]; “inactive; negative” (Test System: AMES SALMONELLA TYPHIMURIUM, Strain/Indicator: TA1535, Metabolic Activation: RAT, LIVER, S-9, AROCLOR 1254, Method: STANDARD PLATE). In addition, the mutagenic call reads like this: under setting [4], “inactive; negative”; (Test System: AMES SALMONELLA TYPHIMURIUM, Strain/Indicator: TA1537, Metabolic Activation: RAT, LIVER, S-9, AROCLOR 1254, Method: STANDARD PLATE) “inactive; negative”.
